Results from patent publication US12643896B2, “Dicyclopropylmethyl derivatives as IL-17 modulators” (UCB Biopharma SRL, priority 2020, dated 2026).

The compounds below were run against T1, IL-17A (Homo sapiens, UniProt Q16552) (assay: Inhibition of IL-17A induced IL-6 release from dermal fibroblast cell line (HDF cell line assay)). Details: human dermal fibroblasts (HDF) stimulated with IL-17A 50 pM + TNF-α 25 pM; IL-6 measured by HTRF; pIC50 = −log10[IC50], IC50 molar.
T1 sequence (Q16552 24-155): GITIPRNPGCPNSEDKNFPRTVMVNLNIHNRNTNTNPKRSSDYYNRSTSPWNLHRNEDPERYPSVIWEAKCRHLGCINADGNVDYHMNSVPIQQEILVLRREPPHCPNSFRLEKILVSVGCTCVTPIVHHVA
Type: cell-based
Excerpt: Inhibition of IL-17A Induced IL-6 Release from Dermal Fibroblast Cell Line
The purpose of this assay is to test the neutralising ability to IL-17 proteins, in a human primary cell system. Stimulation of normal human dermal fibroblasts (HDF) with IL-17 alone produces only a very weak signal but in combination with certain other cytokines, such as TNFα, a synergistic effect can be seen in the production of inflammatory cytokines, i.e. IL-6.
HDFs were stimulated with IL-17A (50 pM) in combination with TNF-α (25 pM). The resultant IL-6 response was then measured using a homogenous time-resolved FRET kit from Cisbio. The kit utilises two monoclonal antibodies, one labelled with Eu-Cryptate (Donor) and the second with d2 or XL665 (Acceptor). The intensity of the signal is proportional to the concentration of IL-6 present in the sample (Ratio is calculated by 665/620×104).
The ability of a compound to inhibit IL-17 induced IL-6 release from human dermal fibroblasts is measured in this assay.
HDF cells (Sigma #106-05n) were cultured in complete media (DMEM+10% FCS+2 mM L-glutamine) and maintained in a tissue culture flask using standard techniques. Cells were harvested from the tissue culture flask on the morning of the assay using TrypLE (Invitrogen #12605036). The TrypLE was neutralised using complete medium (45 mL) and the cells were centrifuged at 300×g for 3 minutes. The cells were re-suspended in complete media (5 mL) counted and adjusted to a concentration of 3.125×10^4 cells/mL before being added to the 384 well assay plate (Corning #3701) at 40 μL per well. The cells were left for a minimum of three hours, at 37° C./5% CO2, to adhere to the plate.
Compounds were serially diluted in DMSO before receiving an aqueous dilution into a 384 well dilution plate (Greiner #781281), where 5 μL from the titration plate was transferred to 45 μL of complete media and mixed to give a solution containing 10% DMSO.
Mixtures of TNFα and IL-17 cytokine were prepared in complete media to final concentrations of TNFα 25 pM/IL-17A 50 pM, then 30 μL of the solution was added to a 384 well reagent plate (Greiner #781281).
10 μL from the aqueous dilution plate was transferred to the reagent plate containing 30 μL of the diluted cytokines, to give a 2.5% DMSO solution. The compounds were incubated with the cytokine mixtures for 5 h at 37° C. After the incubation, 10 μL was transferred to the assay plate, to give a 0.5% DMSO solution, then incubated for 18-20 h at 37° C./5% CO2.
From the Cisbio IL-6 FRET kit (Cisbio #62IL6PEB) europium cryptate and Alexa 665 were diluted in reconstitution buffer and mixed 1:1, as per kit insert. To a white low volume 384 well plate (Greiner #784075) were added FRET reagents (10 μL), then supernatant (10 μL) was transferred from the assay plate to Greiner reagent plate. The mixture was incubated at room temperature for 3 h with gentle shaking (<400 rpm) before being read on a Synergy Neo 2 plate reader (Excitation: 330 nm; Emission: […]).

IC50 [nM]	Compound
15800	Cc1nonc1C(=O)N[C@@H](c1nc2nc([C@H]3CC(F)(F)CCN3C(=O)C34CC(F)(C3)C4)ccc2[nH]1)C(C1CC1)C1CC1 (single isomer, unassigned) [Example 3]
3160	Cc1nonc1C(=O)N[C@@H](c1nc2nc([C@@H]3CC(F)(F)CCN3C(=O)C34CC(F)(C3)C4)ccc2[nH]1)C(C1CC1)C1CC1 (single isomer, unassigned) [Example 4]
398	Cc1nonc1C(=O)N[C@H](c1nc2nc([C@H]3CC(F)(F)CCN3C(=O)C34CC(F)(C3)C4)ccc2[nH]1)C(C1CC1)C1CC1 (single isomer, unassigned) [Example 5]
12.6	Cc1nonc1C(=O)N[C@H](c1nc2nc([C@@H]3CC(F)(F)CCN3C(=O)C34CC(F)(C3)C4)ccc2[nH]1)C(C1CC1)C1CC1 (single isomer, unassigned) [Example 6]
2510	Cc1nonc1C(=O)N[C@H](c1nc2nc([C@H]3C[C@](O)(C(F)(F)F)CCN3C(=O)C34CC(F)(C3)C4)ccc2[nH]1)C(C1CC1)C1CC1 (single isomer, unassigned) [Example 7]
7.94	Cc1nonc1C(=O)N[C@H](c1nc2nc([C@@H]3C[C@@](O)(C(F)(F)F)CCN3C(=O)C34CC(F)(C3)C4)ccc2[nH]1)C(C1CC1)C1CC1 (single isomer, unassigned) [Example 8]
> 10000	Cc1nonc1C(=O)N[C@@H](c1nc2nc([C@H]3C[C@](O)(C(F)(F)F)CCN3C(=O)C34CC(F)(C3)C4)ccc2[nH]1)C(C1CC1)C1CC1 (single isomer, unassigned) [Example 9]
5.01	O=C(N[C@H](c1nc2nc([C@@H]3C[C@@](O)(C(F)F)CCN3C(=O)C34CC(F)(C3)C4)ccc2[nH]1)C(C1CC1)C1CC1)C1(F)CC1 (single isomer, unassigned) [Example 11]
794	O=C(N[C@H](c1nc2nc([C@H]3C[C@](O)(C(F)F)CCN3C(=O)C34CC(F)(C3)C4)ccc2[nH]1)C(C1CC1)C1CC1)C1(F)CC1 (single isomer, unassigned) [Example 12]
63.1	O=C(N1CCC(F)(F)CC1c1ccc2[nH]c(C(NC(=O)C3(C(F)(F)F)CC3)C(C3CC3)C3CC3)nc2n1)C12CC(F)(C1)C2 (centres unmarked) [Example 1, N-(2,2-Dicyclopropyl-1-{5-[4,4-difluoro-1-(3-fluorobicyclo[1.1.1]pentane-1-carbonyl)-piperidin-2-yl]-1H-imidazo[4,5-b]pyridin-2-yl}ethyl)-1-(trifluoromethyl)cyclopropane-carboxamide]
63.1	Cc1nonc1C(=O)NC(c1nc2nc(C3CC(F)(F)CCN3C(=O)C34CC(F)(C3)C4)ccc2[nH]1)C(C1CC1)C1CC1 (centres unmarked) [Example 2, N-(2,2-Dicyclopropyl-1-{5-[4,4-difluoro-1-(3-fluorobicyclo[1.1.1]pentane-1-carbonyl)-piperidin-2-yl]-1H-imidazo[4,5-b]pyridin-2-yl}ethyl)-4-methyl-1,2,5-oxadiazole-3-carboxamide]
